These results are taken from patent US20250090537A1, “ANTIVIRAL COMPOUNDS AND METHODS OF MAKING AND USING THE SAME” (Gilead Sciences, Inc., priority 2023, published 2025).

For one data set, the system named is RSV strain A2. Kind of data set: RSV Cellomics assay for RSV A2 antiviral activity (EC50-RSV-Hep2-96-Cellomics). The data set is classed as cell-based. Conditions: human respiratory syncytial virus, HEp-2, 72 h; Hep2 cells infected with RSV strain A2, MOI=0.05, 3 days; Example B1. The method, then: Example B1: RSV Cellomics Assay for RSV A2 Antiviral Activity (EC50-RSV-Hep2-96-Cellomics) 8×10^3 Hep2 cells are seeded into 96 well plates in 100 μL of media (DMEM supplemented with GlutaMAX, 10% FBS and Pen/Strep) and briefly spun at 50×g for 1 minute to attach cells. Cells were further allowed to attach with overnight incubation at 37° C.+5% CO2. The following day, the media was aspirated and 100 μL of fresh DMEM media containing 2% FBS was added. A three-fold dilution series of compounds of interest are then added to the plate using the Tecan D300e dispenser and the plate is normalized to the well with the highest volume of DMSO. The cells are next infected by adding 100 μL of media containing RSV strain A2 at an MOI=0.05 and the plates incubated for 3 days at 37° C.+5% CO2. Following the incubation, the media is removed, and the cells are washed once with 250 μL PBS and fixed with 250 μL ice-cold 100% methanol for 10 minutes at 4° C. The methanol is then removed and the plates air dried for 5 minutes and then washed once with 250 μL PBS to remove any residual methanol. The wells are then blocked 60 µL/well of BlockAid (B10710, Thermo-Fisher) for 1 hour at RT on rocker at which point the blocking buffer is carefully aspirated. Primary antibody against the RSV F protein (MAB 858-1) is then diluted 1:2000 in SuperBlock (37515, Thermo Fisher) and 50 μL of the primary antibody solution is added to each well. The plates are incubated at room temperature for 1 hour with gentle agitation and then washed with 250 μL of PBS-Tween 3 times. A goat anti-mouse AlexaFluor 647 conjugated secondary antibody (Sigma, A21235) is then diluted 1:2000 and Hoescht 33342 (H3570) at 1:1000 in SuperBlock and 50 μL added to the wells for 1 hour at 37° C. After incubation the antibody solution is aspirated, and the wells are then washed with 250 μL of PBS-Tween 3 times. To keep cells from drying out, 100 μL of PBS is added to each well and the plates are sealed with black plate seal. Fluorescence at the 647 nm wavelength is measured using a Cellomics CellInsight CX7 machine. Compound activity is determined as a percentage of the % positive cells (or average intensity) compared to DMSO treated RSV infected well controls following subtraction of uninfected controls. The EC50 values are then calculated using nonlinear regression analysis in GraphPad Prism.

Data set [1] is described as follows: MT4 CC50 cytotoxicity (CC50-MT4-384). The data set is classed as cell-based. Conditions: human; uninfected MT-4 cells, 4-5 days, Cell-Titer Glo; Example G. The method, then:
Example G. HEp-2 and MT4 CC50
Cytotoxicity of the compounds was determined in uninfected cells using the cell viability reagent in a similar fashion as described before for other cell types (Cihlar et al., ANTIMICROB AGENTS CHEMOTHER. 2008, 52(2):655-65). HEp-2 (1.5×10^3 cells/well) and MT-4 (2×10^3 cells/well) cells were plated in 384-well plates and incubated with the appropriate medium containing 3-fold serially diluted compound ranging from 15 nM to 100,000 nM. Cells were cultured for 4-5 days at 37° C. Following the incubation, the cells were allowed to equilibrate to 25° C., and cell viability was determined by adding Cell-Titer Glo viability reagent. The mixture was incubated for 10 min, and the luminescence signal was quantified using an Envision plate reader. Untreated cell and cells treated at 2 μM puromycin (Sigma, St. Louis, MO) serve as 100% and 0% cell viability control, respectively. The percent of cell viability was calculated for each tested compound concentration relative to the 0% and 100% controls and the CC50 value was determined by non-linear regression as a compound concentration reducing the cell viability by 50%.

A word on the EC50: it is the concentration giving half of the maximal effect. Higher therefore signals a less potent agent. As a reminder, the CC50 is the concentration that lowers cell viability or growth by half. Low values mean harm at low concentration, high ones better tolerance by the cells.

`N#C[C@]1(CO)O[C@@H](c2ccc3c(N)ncnn23)[C@H](O)[C@@H]1O` [Compound 0, (2R,3S,4R,5S)-5-(4-aminopyrrolo[1,2-f][1,2,4]triazin-7-yl)-3,4-dihydroxy-2-(hydroxymethyl)tetrahydrofuran-2-carbonitrile, reference compound] yielded a concentration for a half-maximal effect (EC50) with RSV strain A2 of 9.75 µM.
`CCOC(=O)O[C@H]1[C@H](c2ccc3c(N)ncnn23)O[C@](C#N)(COC(C)=O)[C@H]1OC(=O)OCC` [Compound 1, ((2R,3S,4S,5S)-5-(4-aminopyrrolo[2,1-f][1,2,4]triazin-7-yl)-2-cyano-3,4-bis((ethoxycarbonyl)oxy)tetrahydrofuran-2-yl)methyl acetate] returned an EC50 in the data set on RSV strain A2 of 19.2 µM. Besides, in data set [1], the CC50 was greater than 50 µM.
In turn, `CCOC(=O)O[C@H]1[C@H](c2ccc3c(N)ncnn23)O[C@](C#N)(COC(=O)C(C)C)[C@H]1OC(=O)OCC` [Compound 3, ((2R,3S,4S,5S)-5-(4-aminopyrrolo[2,1-f][1,2,4]triazin-7-yl)-2-cyano-3,4-bis((ethoxycarbonyl)oxy)tetrahydrofuran-2-yl)methyl isobutyrate] returned a concentration for a half-maximal effect (EC50) with RSV strain A2 of 36.6 µM. The molecule also had a cytotoxic concentration (CC50) in data set [1] greater than 50 µM.
`CCOC(=O)O[C@H]1[C@H](c2ccc3c(N)ncnn23)O[C@](C#N)(COC(=O)CC(C)(C)C)[C@H]1OC(=O)OCC` [Compound 4, ((2R,3S,4S,5S)-5-(4-aminopyrrolo[2,1-f][1,2,4]triazin-7-yl)-2-cyano-3,4-bis((ethoxycarbonyl)oxy)tetrahydrofuran-2-yl)methyl 3,3-dimethylbutanoate] came in with a half-maximal effective concentration (EC50) in the data set on RSV strain A2 of 37.5 µM. The same molecule had a CC50 in data set [1] greater than 50 µM.
